We go through 21 compounds from patent publication US10633389B2, “CARM1 inhibitors and uses thereof” (Epizyme, Inc., priority 2013, dated 2020).

In experiment [1] the test system is asymmetric di-methyl PABP1 in RKO cells. Description: RKO methylation assay, In Cell Western (ICW) for asymmetric di-methyl PABP1. The experiment is classed as cell-based. As to conditions: Homo sapiens, RKO, Cellular potencies, ICW PABP1me2a. In outline: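 RKO cells treated with compound for 48 h at 37 °C, then fixed, permeabilized and immunostained for asymmetric di-methyl PABP1, with DRAQ5 as DNA stain. Infrared 700/800 nm signal ratio normalized to DMSO and 20 μM reference-compound controls; IC50 from triplicate wells.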

A further experiment has as its target human CARM1 (PRMT4) (Homo sapiens (Human), UniProt Q86X55). Description: CARM1 enzyme assay on peptide substrate (3H-SAM Flashplate). The conditions noted are these: Biochemical potencies, read-out: Biochem IC50. An excerpt:
S-adenosylmethionine (SAM), S-adenosylhomocysteine (SAH), bicine, Tween20, dimethylsulfoxide (DMSO), bovine skin gelatin (BSG), sodium butyrate and Tris(2-carboxyethyl)phosphine hydrochloride solution (TCEP) were purchased from Sigma-Aldrich at the highest level of purity possible. ^3H-SAM was purchase from American Radiolabeled Chemicals with a specific activity of 80 Ci/mmol. 384-well streptavidin Flashplates were purchased from PerkinElmer.
Peptide representative of human histone H3 residues 16-30 was synthesized with an N-terminal linker-affinity tag motif and a C-terminal amide cap by 21st Century Biochemicals. […] The sequence was Biot-Ahx-[…]-amide and contained a monomethylated arginine at position 26 (SEQ ID NO.:1).
The gene sequence encoding isoform 1 containing a deletion of amino acids 539-561 was amplified subsequently and subcloned into pFastBacMam (Viva Biotech).
Recombinant baculovirus were generated according to Bac-to-Bac kit instructions (Life Technologies). Protein over-expression was accomplished by infecting exponentially growing HEK 293F cell culture at 1.3×10^6 cell/ml with virus (MOI=10) in the presence of 8 mM sodium butyrate. Infections were carried out at 37° C. for 48 hours, harvested by centrifugation, and stored at −80° C. for purification.
Expressed full-length human Flag- and His-tagged CARM1 protein was purified from cell paste by anti-flag M2 affinity chromatography with resin equilibrated with buffer containing 20 mM Tris, 150 mM NaC, 5% glycerol, pH 7.8. Column was washed with 500 mM NaCl in buffer A and Flag-CARM1-His was eluted with 200 ug/ml FLAG peptide in buffer A. Pooled fractions were dialyzed in 20 mM Tris, 150 mM NaCl, 5% glycerol and 1 mM DTT, pH 7.8.
The assays were all performed in a buffer consisting of 20 mM Bicine (pH=7.6), 1 mM TCEP, 0.005% BSG, and 0.002% Tween 20, prepared on the day of use. Compounds in 100% DMSO (1 ul) were spotted into a polypropylene 384-well V-bottom plates (Greiner) using a Platemate Plus outfitted with a 384-channel head (Thermo Scientific). DMSO (1 ul) was added to Columns 11, 12, 23, 24, rows A-H for the maximum signal control and 1 ul of SAH, a known product and inhibitor of CARM1, was added to columns 11, 12, 23, 24, rows I-P for the minimum signal control. A cocktail (40 ul) containing the CARM1 enzyme was added by Multidrop Combi (Thermo-Fisher). The compounds were allowed to incubate with CARM1 for 30 min at room temperature, then a cocktail (10 ul) containing ^3H-SAM and peptide was added to initiate the reaction (final volume=51 ul). The final concentrations of the components were as follows: CARM1 was 0.25 nM, ^3H-SAM was 30 nM, peptide was 250 nM, SAH in the minimum signal control wells was 1 mM, and the DMSO concentration was 2%. The assays were stopped by the addition of non-radiolabeled SAM (10 ul) to a final concentration of 300 uM, which dilutes the ^3H-SAM to a level where its incorporation into the peptide substrate is no longer detectable. 50 ul of the reaction in the 384-well polypropylene plate was then transferred to a 384-well Flashplate and the biotinylated peptides were allowed to bind to the streptavidin surface for at least 1 hour before being washed once with 0.1% Tween20 in a Biotek ELx405 plate washer. The plates were then read in a PerkinElmer TopCount plate reader to measure the quantity of ^3H-labeled peptide bound to the Flashplate surface, measured as disintegrations per minute (dpm) or alternatively, referred to as counts per minute (cpm).
The Hill Coefficient normally allowed to float but may also be fixed at 1 in a 3-parameter fit.

As a reminder, the IC50 is the point on the concentration scale where inhibition reaches its midpoint.

SMILES strings stand for the structures.

Chain of human CARM1 (PRMT4) (Q86X55 other isoform, or with tags, fused parts or gaps isoform Q86X55-1): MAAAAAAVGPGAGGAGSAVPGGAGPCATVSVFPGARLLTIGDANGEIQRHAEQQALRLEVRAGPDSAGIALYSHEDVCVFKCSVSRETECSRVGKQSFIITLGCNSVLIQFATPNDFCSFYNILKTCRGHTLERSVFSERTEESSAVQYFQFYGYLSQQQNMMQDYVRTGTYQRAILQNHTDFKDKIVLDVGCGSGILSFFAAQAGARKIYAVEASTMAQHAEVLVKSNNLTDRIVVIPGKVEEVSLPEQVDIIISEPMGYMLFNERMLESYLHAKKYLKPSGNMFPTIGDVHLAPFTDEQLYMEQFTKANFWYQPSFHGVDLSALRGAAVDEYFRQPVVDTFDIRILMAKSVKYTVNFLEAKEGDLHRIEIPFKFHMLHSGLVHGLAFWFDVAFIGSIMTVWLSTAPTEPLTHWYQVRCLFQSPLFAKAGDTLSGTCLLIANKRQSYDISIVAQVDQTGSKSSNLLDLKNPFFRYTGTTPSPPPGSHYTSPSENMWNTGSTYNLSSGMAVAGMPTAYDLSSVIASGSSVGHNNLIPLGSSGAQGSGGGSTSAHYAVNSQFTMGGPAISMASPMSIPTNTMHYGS

Take `CNCC(O)COc1cccc(-c2nc(NC3CCOC3)c(C)c(C(=O)N(C)C3CCOCC3)n2)c1` (stereo not drawn) [Example 402-1a]: the values for the IC50 (in experiment [1]; on human CARM1 (PRMT4)) were 10 to 20 µM and 3 to 10 µM, respectively.
`CNCC(O)COc1cccc(-c2nc(-c3cnn(CC(C)C)c3)cc(N(CCOC)CCOC)n2)c1` (stereo not drawn) [Example 631-1a]: the IC50 in experiment [1] was ≥ 20 µM; at human CARM1 (PRMT4) it was 1 to 3 µM.
On to `CNCC(O)COc1cccc(-c2nc(NC3CCOC3)c(C)c(C(=O)NC3CCOCC3)n2)c1` (stereo not drawn) [Example 383-1a], for which the values for the IC50 (in experiment [1]; on human CARM1 (PRMT4)) were 10 to 20 µM and 1 to 3 µM, respectively.
As to `CNCC(O)COc1cccc(-c2nc(NC3CCOC3)c(C)c(N3CCCC4(CCOCC4)C3)n2)c1` (stereo not drawn) [Example 401-1a], the figures for the IC50 (in experiment [1]; at human CARM1 (PRMT4)) were 10 to 20 µM and 0.1 to 1 µM, respectively.
As for `CNC[C@@H](O)COc1ccc(F)c(-c2nc(-c3c(C)noc3C)c(C)c(-c3c(C)noc3C)n2)c1` [Example 78-3], the IC50 in experiment [1] was ≥ 20 µM; on human CARM1 (PRMT4), 0.1 to 1 µM.
For the compound `CNC[C@@H](O)COc1cccc(-c2nc(NCC3CCOCC3)cc(-c3cn(S(C)(=O)=O)c4ncncc34)n2)c1` [Example 686-1a], the IC50 is ≥ 20 µM in experiment [1] and 0.1 to 1 µM on human CARM1 (PRMT4).
`CNCC(O)COc1cccc(-c2nc(N[C@@H]3CCOC3)c(C)c(N3CCC(O)CC3)n2)c1` (stereo partly drawn) [Example 361-1a]: the IC50 fell in the range of 10 to 20 µM in experiment [1] and 0.1 to 1 µM at human CARM1 (PRMT4).
For the compound `CNCC(O)COc1cccc(-c2nc(N[C@H]3CO[C@H]4OCC[C@H]43)cc(N3CCOCC3)n2)c1` (stereo partly drawn) [Example 373-1a], the results for the IC50 (in experiment [1]; at human CARM1 (PRMT4)) were 10 to 20 µM and 0.1 to 1 µM, respectively.
Regarding `CCNc1nc(-c2cccc(OCC(O)CNC)c2)nc(NC2CCOCC2)c1C` (stereo not drawn) [Example 676-1a], the figures for the IC50 (in experiment [1]; on human CARM1 (PRMT4)) were ≥ 20 µM and 1 to 3 µM, respectively.
In the case of `CNCC(O)COc1cc(Cl)cc(-c2nc(N[C@@H]3CCOC3)c(C)c(C(=O)N(C)CC3CCOCC3)n2)c1` (stereo partly drawn) [Example 353-1a], the figures for the IC50 (in experiment [1]; at human CARM1 (PRMT4)) were 10 to 20 µM and 0.1 to 1 µM, respectively.
On to `CNCC(O)COc1cc(-c2nc(NC3CCOC(C)C3)c(C)c(-c3c(C)noc3C)n2)ccc1F` (stereo not drawn) [Example 51-3], for which the results for the IC50 (in experiment [1]; at human CARM1 (PRMT4)) were ≥ 20 µM and 0.1 to 1 µM, respectively.
Take `CNCC(O)COc1cccc(-c2nc(N[C@@H]3CCOC3)c(C)c(-c3ccnn3C)n2)c1` (stereo partly drawn) [Example 337-1a]: the IC50 lay in the range of 5 to 10 µM in experiment [1] and 0.1 to 1 µM at human CARM1 (PRMT4).
Take `CNCC(O)COc1ccc(C#N)c(-c2nc(NC3CCN(C(=O)OC)CC3)c(C)c(-c3c(C)noc3C)n2)c1` (stereo not drawn) [Example 165-3]: the IC50 in experiment [1] was ≥ 20 µM; on human CARM1 (PRMT4), 0.1 to 1 µM.
The matching figures for `CNCC(O)COc1cccc(-c2nc(N3CCN(CC(F)(F)F)[C@@H](C)C3)cc(N(C)C3CCOCC3)n2)c1` (stereo partly drawn) [Example 594-1a]: 10 to 20 µM and 0.1 to 1 µM.
The matching figures for `CNCC(O)COc1cccc(-c2nc(N3CCN(C(C)=O)C4(CC4)C3)cc(N(C)C3CCOCC3)n2)c1` (stereo not drawn) [Example 523-1a]: 5 to 10 µM and 0.1 to 1 µM.
As for `CNCC(O)COc1cccc(-c2nc(-c3c(C)noc3C)c(C)c(-c3c(C)noc3C)n2)c1` (stereo not drawn) [Example 25-1a], the IC50 in experiment [1] was in the range of 10 to 20 µM; at human CARM1 (PRMT4) it was 0.1 to 1 µM.
The matching figures for `CNCC(O)COc1cccc(-c2nc(NC3CCN(C(=O)OC)CC3)c(C)c(-c3c(C)noc3C)n2)c1Cl` (stereo not drawn) [Example 107-3]: ≥ 20 µM and 3 to 10 µM.
With `CNCC(O)COc1cccc(-c2nc(NC(C)C3CCOCC3)cc(-c3c(C)noc3C)n2)c1` (stereo not drawn) [Example 158-1a], the IC50 in experiment [1] lay in the range of 5 to 10 µM; at human CARM1 (PRMT4), 0.1 to 1 µM.
For the compound `CNCC(O)COc1cccc(-c2nc(N3CCN(S(C)(=O)=O)[C@@H](C)C3)cc(N(C)C3CCOCC3)n2)c1` (stereo partly drawn) [Example 520-1a], the results for the IC50 (in experiment [1]; at human CARM1 (PRMT4)) were 5 to 10 µM and 0.1 to 1 µM, respectively.
For the compound `CNCC(O)COc1cccc(-c2nc(NC3CCOCC3)cc(N(C3CCOCC3)C3CC3)n2)c1` (stereo not drawn) [Example 605-1a], the figures for the half-inhibitory concentration (IC50) (in experiment [1]; at human CARM1 (PRMT4)) were 10 to 20 µM and 1 to 3 µM, respectively.
The matching figures for `CCCCOc1nc(-c2ccc(F)c(OCC(O)CNC)c2)nc(-c2c(C)noc2C)c1C` (stereo not drawn) [Example 50-3]: ≥ 20 µM and 0.1 to 1 µM.
